Measured values reported in patent US6667165B2, “Method and compositions for reversible inhibition of thermostable polymerases” (Eppendorf AG, priority 2001, dated 2003).

Tests used:
Type in all cases: biochemical
Taq DNA polymerase [1] = molecular target: T1, Taq DNA polymerase (Thermus aquaticus, UniProt P19821); experiment: M13 phage DNA primer extension assay (agarose gel read-out); conditions: for inhibition of Taq DNA polymerase at 40° C. (FIG. 5) / inhibition of Taq DNA polymerase (FIG. 6): 40° C.; for inhibitory effect on Taq DNA polymerase in primer extension assay: 51° C., carbohydrates 1% w/vol, ds Lambda DNA 5 μg/rxn, 10 minutes pre-incubation with Taq; for restoration of Taq DNA polymerase activity at 60° C.: concentration range tested, lowest 10 μmol
T1 construct: purchased Eppendorf AG
Excerpt: A simple non-radioactive primer extension assay was used to monitor the activity of Taq DNA polymerase for DNA synthesis at various temperatures. The universal −47 M13 24-mer sequencing primer (New England Biolabs, Inc.) was annealed to circular single-stranded virion DNA from E. coli phage M13 (New England Biolabs, Inc.) to form an appropriate template for DNA synthesis by Taq DNA polymerase.
During the assay reactions, the annealed primer is extended by stepwise addition of complementary nucleotides (dNTP) on the single-stranded template DNA with Taq polymerase. The polymerase mediated primer extension reaction transforms the circular single-stranded (ss) template DNA into a double-stranded (ds) plasmid-like circular DNA molecule, as shown in FIG. 1. A completely ds circular phage DNA molecule is synthesized when the de-novo synthesized complementary strand reaches the 5′ end of the extended primer. This terminates the DNA synthesis process due to the weak strand displacement activity of Taq DNA polymerase. The ss primed template DNA, the full length ds circular DNA synthesis product, and intermediate synthesis products with ds regions of variable length differ from each other by their electrophoretic mobility in 1% agarose gels. The initial DNA template and all reaction products can be separated and monitored by electrophoresis in a 1% […] agarose gel stained with ethidium bromide.
The electrophoretic mobility of the three species reciprocally correlates with the length of the de-novo synthesized complementary strand. With increasing length of the ds regions, the migration of intermediate primer extension products shifts toward the slow migrating band of ds circular DNA (full-length synthesis product). The amount (band intensity) of the ds full-length synthesis product, as well as the migration shift of intermediate primer extension product, were used as a measure for the activity and extension rate of Taq DNA polymerase under various reaction conditions.
After the denaturation/annealing reaction the primed ss template DNA was stored frozen at −20° C. until use. 5 μL of this primed ss template DNA mix were added into a 50 μL primer extension assay reaction, or 2 μL into a 20 μL assay, respectively. The primer extension assay reactions were set-up on ice in 0.2 mL PCR tubes adding the reaction components to the following final concentrations:
The primer extension reactions were incubated for either 20 or 40 minutes on Eppendorf Mastercyclers set to the desired reaction temperature (30° C.-70° C.). At the end of the incubation time the reaction were placed on ice and 1 μL of 100 mM EDTA was added to stop the reaction immediately. 20 μL of each primer extension assay reaction were loaded on the 1% agarose gel for further analysis.
Soluble carbohydrates 5% w/vol aqueous solutions in molecular biology grade water were prepared. The desired carbohydrates or ds DNA were added to the primer extension reaction described above in Example 2 to final concentrations of 1% w/vol. In modification of the original primer extension assay the reaction mixtures were set-up without the primed template DNA. The primer-template DNA was added to the Taq DNA polymerase/carbohydrate sample after a 10 minutes pre-incubation in order to permit preliminary interaction of the carbohydrate with the Taq DNA polymerase, i.e., pre-incubate the carbohydrate onto the Taq DNA polymerase. The primer extension reactions were incubated for 40 minutes at 51° C. (the critical temperature for specific primer annealing). 20 μl of the reaction mixtures were analyzed on 0.7% agarose gel.
Primer extension assays were carried out in the presence of various concentration of dextran sulfate Mw 1500 (see FIG. 4), Mw 4000, Mw 5000 and Mw 8000 (see FIGS. 5 and 6). The reaction set-up was modified so that the dextran sulfates were pre-mixed into the Taq polymerase solution (5 U/μl) to provide final concentrations as indicated in the Figures. […]

Taq DNA polymerase [2] = molecular target: T1, Taq DNA polymerase; experiment: 2 kb human β-globin gene fragment PCR, specificity and yield on agarose gel
Description: In order to amplify a predictable sized DNA fragment of the human β-globin gene, a pair of known primers was selected from a region of the human β-globin gene (Collins et al (1984) Prog Nucleic Acid Res Mol Biol 31:315-462 to yield PCR products with length of 2.0 kb: The Taq DNA polymerase 5 U/μl containing 0.2 mM dextran sulfate Mw4000 was used in the PCR mixtures (10 mM Tris-HCl, pH 8.3, 50 mM KCl, 2.5 mM Mg(OAc)2, 200 μM dNTP) in which human genomic DNA (100 ng) was used as template. The PCR was performed as follows: 94° C. for 2 min followed by 35 cycles of 55° C.—20 seconds, 72° C.—2:30 minutes and 94° C. for −15 seconds. The PCR products were subjected to agarose gel electrophoresis. Negative control experiments were carried out under the same PCR conditions except that unmodified Taq DNA Polymerase was used in the reaction. A positive control experiment was carried out in the same PCR conditions except that AmpliTaq Gold DNA Polymerase (Perkin Elmer Biosystems), the market leading product for performing highly specific hot start PCR, with the appropriate reaction buffer were used in the reaction.
The same basic PCR assay was performed as described in the previous Examples, except that Taq DNA polymerase preparations were mixed with increasing amounts of dextran sulfate Mw4000. […]

Taq DNA polymerase [3] = molecular target: T1, Taq DNA polymerase; experiment: Primer extension assay quantified with picogreen (de-novo synthesized ds DNA); conditions: Mw4000, Mw5000, Mw8000 at 175 μmol, 30 μmol and 32 μmol; 5 minutes incubation; FIG. 10
Excerpt: FIG. 10 graphically illustrates the temperature dependent inhibition of Taq DNA polymerase by dextran sulfate Mw4000, Mw5000, and Mw8000 which have been quantitatively analyzed. In each reaction the amount of de-novo synthesized double-stranded DNA was quantified with picogreen on a Fluorescence Microplate Reader. The amount of double-stranded DNA in the control reactions with unmodified Taq polymerase at each temperature tested were taken as 100% activity at the corresponding reaction temperature. […] at the corresponding reaction temperature and multiplied by 100 to calculate the percent of residual activity of dextran sulfate inhibited Taq polymerase from the activity of the unmodified enzyme at that temperature (bold line graphs). 100 minus the percent of residual activity of dextran sulfate inhibited Taq polymerase represents the percent of relative activity inhibition of dextran sulfate/Taq polymerase complexes at each temperature shown with dotted line graphs.
Primer extension was set-up as described in Example 4. The final concentrations of dextran sulfate Mw4000, Mw5000 and Mw8000 were adjusted to 175 μmol, 30 μmol and 32 μmol, respectively. At each tested incubation temperature a control reaction was carried out with unmodified Taq polymerase. After 5 minutes incubation the reactions were stopped as described earlier. 25.2 μl out of 50 μl were used to quantify the yield of de-novo synthesized double-stranded DNA with picogreen. The picogreen stained DNA samples were measured on a Fluorescence Microplate Reader.
The amount of double-stranded DNA in the control reactions with unmodified Taq polymerase at each temperature tested were taken as 100% activity at the corresponding reaction temperature. […]

[4] = 20 minutes, first concentration ranges
[5] = 20 minutes, re-fined concentration ranges

T1 sequence (P19821 whole entry): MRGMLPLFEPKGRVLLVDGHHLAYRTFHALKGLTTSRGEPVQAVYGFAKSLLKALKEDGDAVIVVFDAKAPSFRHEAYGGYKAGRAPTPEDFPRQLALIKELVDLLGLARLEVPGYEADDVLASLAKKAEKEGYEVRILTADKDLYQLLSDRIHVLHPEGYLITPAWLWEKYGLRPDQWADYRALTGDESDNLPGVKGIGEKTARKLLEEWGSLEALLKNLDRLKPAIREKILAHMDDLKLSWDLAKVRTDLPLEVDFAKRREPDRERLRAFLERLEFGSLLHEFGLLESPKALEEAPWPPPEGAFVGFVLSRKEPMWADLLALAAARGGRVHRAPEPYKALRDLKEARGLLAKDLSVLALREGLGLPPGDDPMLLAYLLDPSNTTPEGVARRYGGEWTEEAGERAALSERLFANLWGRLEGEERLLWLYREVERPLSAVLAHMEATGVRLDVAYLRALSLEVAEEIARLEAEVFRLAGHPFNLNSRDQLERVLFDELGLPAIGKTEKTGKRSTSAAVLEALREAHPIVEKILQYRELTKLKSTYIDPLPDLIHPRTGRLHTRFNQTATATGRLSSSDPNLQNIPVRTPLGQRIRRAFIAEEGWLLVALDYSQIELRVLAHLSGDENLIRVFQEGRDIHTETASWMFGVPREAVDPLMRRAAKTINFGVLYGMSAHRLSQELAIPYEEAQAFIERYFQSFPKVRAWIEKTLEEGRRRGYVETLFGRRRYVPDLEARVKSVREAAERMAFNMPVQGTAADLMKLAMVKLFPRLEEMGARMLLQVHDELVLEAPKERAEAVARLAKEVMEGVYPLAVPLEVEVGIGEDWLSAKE

## dextran sulfate [dextran sulfate Mw 4000]
Taq DNA polymerase [1]; [4]
  inhibition of Taq DNA polymerase at 40° C. (FIG. 5): strong inhibition
Taq DNA polymerase [1]; [5]
  inhibition of Taq DNA polymerase (FIG. 6): strong inhibition
Taq DNA polymerase [2]; 100 ng human genomic DNA, Taq 5 U/μl containing 0.2 mM dextran sulfate, 35 cycles, FIG. 7
  effect on specificity of the PCR reaction: significantly enhanced the specificity
Taq DNA polymerase [2]; increasing amounts of dextran sulfate, FIG. 8
  yield and specificity of the 2 kb PCR fragment versus concentration: clear correlation
Taq DNA polymerase [3]
  temperature dependence of Taq DNA polymerase inhibition (relative to unmodified Taq): inhibit Taq DNA polymerase in a temperature dependent manner

## dextran sulfate [dextran sulfate Mw 5000]
Taq DNA polymerase [1]; [4]
  inhibition of Taq DNA polymerase at 40° C. (FIG. 5): strong inhibition
Taq DNA polymerase [1]; [5]
  inhibition of Taq DNA polymerase (FIG. 6): strongest inhibition of all dextran sulfate derivatives tested
Taq DNA polymerase [1]; MW 5000
  inhibitory effect on Taq DNA polymerase in primer extension assay: strong inhibition
Taq DNA polymerase [1]; listed as dextran sulfate having a molecular weight of 5000
  inhibitory effect on Taq DNA polymerase in primer extension assay: strong inhibitor
Taq DNA polymerase [1]; 20 minutes, dextran sulfate pre-mixed into Taq polymerase solution
  concentration at which almost full Taq polymerase activity could be restored between 60-70° C.: 1.25 µM
Taq DNA polymerase [1]; first concentration ranges, 40° C.-70° C., 20 minutes
  concentration range with strong inhibition at 40° C. and release of almost full activity at 70° C. (FIG. 5): 1.25 µmol
Taq DNA polymerase [1]; re-fined concentration ranges, 40° C.-70° C., 20 minutes
  concentration range with strong inhibition at 40° C. and release of almost full activity at 70° C. (FIG. 6): 1.25 µmol
Taq DNA polymerase [3]
  temperature dependence of Taq DNA polymerase inhibition (relative to unmodified Taq): inhibit Taq DNA polymerase in a temperature dependent manner

## dextran sulfate [dextran sulfate Mw 1500]
Taq DNA polymerase [1]; 50° C. and 60° C., FIG. 4
  concentration at which partial release of inhibition was detected: < 50 µmol
Taq DNA polymerase [1]; 20 minutes
  restoration of Taq DNA polymerase activity at 60° C.: only be partially restored
Taq DNA polymerase [1]; 20 minutes, listed as dextran sulfate Mw 1,500
  restoration of Taq DNA polymerase activity at 60° C.: full synthesis activity could not be regained

## methylcellulose [reference compound]
Taq DNA polymerase [1]
  inhibitory effect on Taq DNA polymerase in primer extension assay: weak inhibitory effect

## dextran sulfate [dextran sulfate Mw 8000]
Taq DNA polymerase [1]; [4]
  inhibition of Taq DNA polymerase at 40° C. (FIG. 5): strong inhibition
Taq DNA polymerase [1]; [5]
  inhibition of Taq DNA polymerase (FIG. 6): strong inhibition
Taq DNA polymerase [3]
  temperature dependence of Taq DNA polymerase inhibition (relative to unmodified Taq): inhibit Taq DNA polymerase in a temperature dependent manner
